Measurements reported in patent US8785430B2, “Compound that can inhibit UBC13-UEV interactions, pharmaceutical compositions and therapeutic uses” (Consejo Superior de Investigaciones Cientificas, priority 2006, dated 2014).

Key:
[1] = test system: S. cerevisiae Δrad6 mutants; experiment: Survival of S. cerevisiae Δrad6 mutants after ultraviolet radiation or MMS; assay type: cell-based, Saccharomyces cerevisiae; conditions: 100 μM; for rescue of the rad6 phenotype generated by treatment with MMS (survival): 0.03% MMS; for rescue of the rad6 phenotype induced by UV irradiation (survival): ultraviolet radiation
Description: To determine if compounds Ia and Ib inhibit the function of Ubc13p-Mms2p, their capacity to mimic in S. cerevisiae the DNA repair phenotypes generated by the null mutation of ubc13 was evaluated. Thus, mutant strains in RAD6 or REV3 and the parent strain thereof (control) were used in viability assays after the exposure to ultraviolet radiation or MMS. The genotypes of the strains used are the following:
2) Strain Δrad6: MAT at his3Δ1 leu2Δ0 lys2Δ0 ura3Δ0 rad6::kanMX4
Cells were inoculated in liquid cultures with YPD medium overnight at 30° C., until reaching the log phase of growth. For the treatments with ultraviolet radiation, aliquots of cells, grown in the presence or absence of 100 μM of compounds Ia or Ib were irradiated in a Stratalinker instrument (Stratagene) at the energies indicated in FIGS. 7 and 8. For the treatment with the mutagenic agent MMS, aliquots of cells grown or not in medium with 100 μM of compounds Ia or Ib were incubated, 0.03% MMS being added, with subsequent incubation for the times indicated in FIGS. 7 and 8. After either treatment, 500 cells were seeded in plates with YPD medium, counting the colonies after 2 days.

[2] = molecular target: T1, binding of UEV1 to GST-UBC13 (Homo sapiens, UniProt P61088); experiment: Purified recombinant protein interaction assay, UEV1 binding to GST-UBC13 on glutathione-Sepharose; conditions: for UEV1 in the fraction which is eluted and not bound to GST-UBC13: 100 μM; for inhibition of the interaction of UEV1 with UBC13 at lower concentrations: much lower concentrations, of up to 10 nM
T1 construct: made in house; host or cells: Escherichia coli BL21
T1 sequence (P61088 1-152): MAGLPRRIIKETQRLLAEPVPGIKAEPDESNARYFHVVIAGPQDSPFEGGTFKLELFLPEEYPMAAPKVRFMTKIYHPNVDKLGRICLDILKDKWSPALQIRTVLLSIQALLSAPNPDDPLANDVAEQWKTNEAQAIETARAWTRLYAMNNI
Description: To determine the activity of these compounds in acellular assays, protein-protein interaction experiments were performed with recombinant proteins produced in Escherichia coli. To express UBC13 and UEV1, bacterial cells of the E. coli strain BL21 were transformed with plasmids pGEX-4T1-UBC13 or pGEX-4T3-UEV1, transformed colonies being selected by means of growth in plates with ampicillin (100 μg/mL). Individual colonies were transferred to 3 L of LB medium without antibiotics, being grown with stirring at 37° C. until the culture reached the exponential phase (OD600˜0.6), at which time the expression of the recombinant proteins was induced by means of adding isopropyl […] (IPTG, Sigma I-6758) at a concentration of 1 mM for 5 hours to the culture. The cultures were transferred to tubes, centrifuged and the cell pellets were resuspended in twice their volume of phosphate buffered saline (PBS) at pH 7.4 and were broken in a Cell Disruptor instrument (Constant Systems). The cell lysates were filtered through cellulose acetate filters with […] (Millipore SLHA033SS) and were applied to GSTrap FF columns (Amersham Biosciences 17-5131-01). In the case of UEV1, the protein bound specifically to the column was subjected to enzymatic digestion on the same column with 50 units of thrombin (Amersham Biosciences 27-0846-01) at 25° C. overnight. A HiTrapBenzamidine FF column (Amersham Biosciences 27-0846-01) was coupled to the previous column, such that the GST unit was trapped in the first column, and the thrombin in the second column. Then the UEV1 protein was eluted, without the GST portion, followed by a subsequent step of purification by means of gel filtration chromatography with a Superdex 75 column. The GST-UBC13 recombinant protein was expressed as indicated above, being purified by means of affinity chromatography in GSTrap FF columns, followed by filtration chromatography in Superdex 75. The fractions corresponding to the purified proteins were concentrated by means of centrifugation in Centricon YM-10 columns (Millipore 4205), being stored at 4° C. until their use.
To determine the effects of compounds Ia and Ib on the interaction of UBC13 with UEV1, 2 μL of the GST-UBC13 chimeric recombinant protein, at a concentration of […] in a 50 mM Hepes buffer, 100 mM NaCl, 1 mM EDTA, 0.5 mM DTT at pH 7.6 were pre-incubated for 30 minutes at room temperature with the compounds Varubin, Ib or the cyclic control compound VIII-N6-2-1C at final concentrations of 10 nM, 100 nM, 1 μM, 10 μM or 100 μM. […]

[3] = test system: interaction between p53 and large T; experiment: Two-hybrid assay in yeasts, positive interaction control p53 - large T; assay type: cell-based; conditions: 100 μM
Description: Each of the 52 mixtures of peptoids was analyzed by means of this process in triplicate, in three independent experiments. The interaction between UBC13 and UEV1 in the absence of peptoids and the interaction between p53 and the SV40 large T protein were used as positive interaction controls in all these assays. The laminin and […] proteins were used as a negative control. The β-galactosidase activities for the UBC13-UEV1 interaction were standardized with respect to the β-galactosidase activities of the corresponding positive control thereof (p53-large T). The activities β-galactosidase standardized in that manner are illustrated in FIG. 2.
The effect of compounds Ia and Ib on the UBC13-UEV1 interaction in two-hybrid assays in yeasts was performed by incubating cells of the Saccharomyces cerevisiae strain AH109, grown in a selective medium, with 100 μM of either compound. The interaction of Sv40 large T and p53 proteins was used as positive interaction control. The intensity of the interactions was determined colorimetrically by means of detecting the β-galactosidase activity, using O-nitrophenyl-p-galactopyranoside (ONPG) as a substrate, each determination being performed in triplicate. […]

Structure (SMILES) | rescue of the rad6 phenotype generated by treatment with MMS (survival) [1] | rescue of the rad6 phenotype induced by UV irradiation (survival) [1] | UEV1 in the fraction which is eluted and not bound to GST-UBC13 [2] | inhibition of the interaction of UEV1 with UBC13 at lower concentrations [2] | inhibition of the control interaction between p53 and large T [3]
NC(=O)CN(CCc1ccccn1)C(=O)C1CC(=O)N(CCc2ccc(F)cc2)CC(=O)N1CCc1ccc(F)cc1 (stereo not shown) [Ia, N-aminocarbamoylmethyl-N-(2′-(2″pyridyl)ethyl)-1,4-bis[2′-(4″-fluorophenyl)ethyl]-3,7-dioxo-[1,4]diazepane-5-carboxamide] | to a lesser extent | clearly rescued the rad6 phenotype | up to 60% | efficient inhibition | Neither of these two compounds inhibits the interaction
NC(=O)CN(CCc1ccccn1)C(=O)CC1C(=O)N(CCc2ccc(F)cc2)CC(=O)N1CCc1ccc(F)cc1 (stereo not shown) [Ib, 1,4-bis[2′-(4″-fluorophenyl)ethyl]-2-[N-aminocarbonylmethyl-N-(2′-(2″-pyridyl)ethyl)-carbonylmethyl]piperazine-3,6-dione] | to a lesser extent | clearly rescued the rad6 phenotype | ≤ 40% | efficient inhibition | Neither of these two compounds inhibits the interaction
